Measurements: publication PMC10879502, “Linking ATP and allosteric sites to achieve superadditive binding with bivalent EGFR kinase inhibitors” (Communications Chemistry, 2024)

Tests used:
[1] = target: T1, EGFR L858R/T790M (LRTM) kinase domain (Homo sapiens, UniProt P00533, L858R/T790M); assay: HTRF KinEASE-TK kinase activity assay; assay type: biochemical; conditions: Table S1, ATP 100 µM; for IC50: read-out: IC50, LRTM
T1 construct: The EGFR kinase domain (residues 696–1022) was cloned into pTriEx; 6xHis (N, cleaved yes); GST (N, cleaved yes); made in house; host or cells: SF9 insect cells, baculovirus
T1 sequence (P00533 696-1022 T790M/L858R): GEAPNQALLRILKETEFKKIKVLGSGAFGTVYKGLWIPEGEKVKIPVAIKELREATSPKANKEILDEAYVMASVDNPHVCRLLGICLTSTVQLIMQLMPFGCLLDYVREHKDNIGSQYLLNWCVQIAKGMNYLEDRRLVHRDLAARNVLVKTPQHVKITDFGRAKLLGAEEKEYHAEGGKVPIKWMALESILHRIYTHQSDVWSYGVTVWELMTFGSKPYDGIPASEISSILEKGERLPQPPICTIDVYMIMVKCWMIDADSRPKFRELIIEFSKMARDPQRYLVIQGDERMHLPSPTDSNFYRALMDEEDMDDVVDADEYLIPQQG

[2] = tested on: Ba/F3 cells, wildtype EGFR; conditions: Ba/F3 ref 4 Wittlinger and Heppner; read-out: EGFR EC50, wt; cited from earlier work
[3] = tested on: Ba/F3 cells, L858R EGFR; conditions: Ba/F3 ref 4 Wittlinger and Heppner; read-out: EGFR EC50, LR; cited from earlier work
[4] = tested on: Ba/F3 cells, LR/TM/CS EGFR; conditions: Ba/F3 ref 4 Wittlinger and Heppner; cited from earlier work

| IC50 [1] [µM] | IC50, LRTM [1] | SMILES | EC50 [2] [µM] | EC50 [3] [µM] | EC50 [4] [µM] |
| --- | --- | --- | --- | --- | --- |
| ≥ 10 |  | O=C1Nc2c(cccc2C(=O)Nc2nccs2)Nc2ccccc21 [Compound 11] |  |  |  |
| ≥ 10 | virtually inactive | O=C1Nc2c(cccc2C(=O)Nc2ccccc2)Nc2ccccc21 [Compound 10] |  |  |  |
|  |  | C=CC(=O)Nc1ccc(OC)c(Nc2cc(-c3[nH]c(SC)nc3-c3ccc(F)cc3)ccn2)c1 [Compound 7] | 0.02 ± 0.006 | < 0.001 | 1.6 ± 0.2 |
| ≥ 10 |  | COc1ccc2c(c1)C(=O)Nc1c(cccc1C(=O)Nc1nccs1)N2 [Compound 12] |  |  |  |
